According to ChEMBL document CHEMBL1201862, “PubChem BioAssay data set” (2004):
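Values below derive from 48-hour exposures of cells grown in 96-well plates, with endpoints linearly interpolated between the two concentrations bracketing the appropriate inhibition level. GI50: concentration for 50% inhibition of growth.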 Active and inactive are the calls of the source. Rule as the data show it: active = GI50 up to about 1.1 µM and inactive = higher.

Tests used:
Assay in all cases: DTP human tumour cell line panel, 48 h
ACHN = system: ACHN
DMS-114 = system: DMS-114
IGROV-1 = system: IGROV-1
M14 = system: M14
SF-539 = system: SF-539
NCI-H522 = system: NCI-H522
SF-268 = system: SF-268
SK-MEL-28 = system: SK-MEL-28
K562 = system: K562
MOLT-4 = system: MOLT-4
LXFL 529 = system: LXFL 529
CCRF-CEM = system: CCRF-CEM
KM12 = system: KM12
786-0 = system: 786-0
HCT-116 = system: HCT-116
U-251 = system: U-251
RXF 393 = system: RXF 393
A549 = system: A549
LOX IMVI = system: LOX IMVI
OVCAR-8 = system: OVCAR-8
UO-31 = system: UO-31
KM-20L2 = system: KM-20L2
A498 = system: A498
TK-10 = system: TK-10
OVCAR-3 = system: OVCAR-3
SNB-75 = system: SNB-75
NCI-H460 = system: NCI-H460
SK-MEL-5 = system: SK-MEL-5
HCT-15 = system: HCT-15
HCC 2998 = system: HCC 2998
RPMI-8226 = system: RPMI-8226
DLD-1 = system: DLD-1
HT-29 = system: HT-29
NCI-H23 = system: NCI-H23
SW-620 = system: SW-620
COLO 205 = system: COLO 205
SN12C = system: SN12C
OVCAR-4 = system: OVCAR-4
OVCAR-5 = system: OVCAR-5
UACC-62 = system: UACC-62
MDA-N = system: MDA-N
T47D = system: T47D
PC-3 = system: PC-3
SK-OV-3 = system: SK-OV-3
NCI/ADR-RES = system: NCI/ADR-RES
SK-MEL-2 = system: SK-MEL-2
HOP-92 = system: HOP-92
DU-145 = system: DU-145
SR = system: SR
BT-549 = system: BT-549
MDA-MB-231 = system: MDA-MB-231
MDA-MB-435 = system: MDA-MB-435
HL-60 = system: HL-60
NCI-H226 = system: NCI-H226
CAKI-1 = system: CAKI-1
SNB-19 = system: SNB-19
Malme-3M = system: Malme-3M
SF-295 = system: SF-295
Hs-578T = system: Hs-578T
HOP-62 = system: HOP-62
UACC-257 = system: UACC-257
MCF7 = system: MCF7
EKVX = system: EKVX

CN1CCN(CN2C(=O)C3C4C=CC(C3C2=O)C2C3C(=O)N(CN5CCN(C)CC5)C(=O)C3C42)CC1 (stereo not drawn)
GI50 (ACHN): 19.1 µM (inactive)
GI50 (DMS-114): 19.6 µM (inactive)
GI50 (IGROV-1): 42.6 µM (inactive)
GI50 (M14): 21.3 µM (inactive)
GI50 (SF-539): 24.7 µM (inactive)
GI50 (NCI-H522): 12.5 µM (inactive)
GI50 (SF-268): 17.2 µM (inactive)
GI50 (SK-MEL-28): 19.3 µM (inactive)
GI50 (K562): 28.2 µM (inactive)
GI50 (MOLT-4): 29.9 µM (inactive)
GI50 (LXFL 529): 23.8 µM (inactive)
GI50 (CCRF-CEM): 22 µM (inactive)
GI50 (KM12): 32.7 µM (inactive)
GI50 (786-0): 18.4 µM (inactive)
GI50 (HCT-116): 13 µM (inactive)
GI50 (U-251): 18.2 µM (inactive)
GI50 (RXF 393): 20.7 µM (inactive)
GI50 (A549): 18.6 µM (inactive)
GI50 (LOX IMVI): 17.4 µM (inactive)
GI50 (OVCAR-8): 24.7 µM (inactive)
GI50 (UO-31): 32.1 µM (inactive)
GI50 (KM-20L2): 25.5 µM (inactive)
GI50 (A498): > 100 µM (inactive)
GI50 (TK-10): 31.1 µM (inactive)
GI50 (OVCAR-3): 29.1 µM (inactive)
GI50 (SNB-75): 27.7 µM (inactive)
GI50 (NCI-H460): 13.5 µM (inactive)
GI50 (SK-MEL-5): 30.4 µM (inactive)
GI50 (HCT-15): 14.6 µM
GI50 (HCC 2998): 27.7 µM (inactive)
GI50 (RPMI-8226): 34.2 µM (inactive)
GI50 (DLD-1): 24.1 µM (inactive)
GI50 (HT-29): 45.9 µM (inactive)
GI50 (NCI-H23): 28.7 µM (inactive)
GI50 (SW-620): 16.4 µM (inactive)
GI50 (COLO 205): 20.2 µM (inactive)
GI50 (SN12C): 22.5 µM (inactive)
GI50 (OVCAR-4): 24.5 µM (inactive)
GI50 (OVCAR-5): 22.1 µM (inactive)
GI50 (UACC-62): 24.1 µM (inactive)

Oc1c(C(Nc2ccccn2)c2ccccc2)ccc2cccnc12 (stereo not drawn)
GI50 (ACHN): 3.56 µM (inactive)
GI50 (MDA-N): 5.7 µM (inactive)
GI50 (IGROV-1): 3.33 µM (inactive)
GI50 (T47D): 3.94 µM (inactive)
GI50 (M14): 3.08 µM (inactive)
GI50 (PC-3): 3.39 µM (inactive)
GI50 (SK-OV-3): 9.4 µM (inactive)
GI50 (NCI/ADR-RES): 1.82 µM (inactive)
GI50 (SF-539): 3.18 µM (inactive)
GI50 (SK-MEL-2): 3.55 µM (inactive)
GI50 (NCI-H522): 2.68 µM (inactive)
GI50 (HOP-92): 1.94 µM (inactive)
GI50 (SF-268): 2.94 µM (inactive)
GI50 (SK-MEL-28): 6.22 µM (inactive)
GI50 (K562): 3.22 µM (inactive)
GI50 (MOLT-4): 2.39 µM (inactive)
GI50 (DU-145): 4.05 µM (inactive)
GI50 (CCRF-CEM): 1.37 µM (inactive)
GI50 (KM12): 4.59 µM (inactive)
GI50 (SR): 2.31 µM (inactive)
GI50 (786-0): 2.76 µM (inactive)
GI50 (HCT-116): 3.26 µM (inactive)
GI50 (BT-549): 5.25 µM (inactive)
GI50 (U-251): 2.72 µM (inactive)
GI50 (RXF 393): 3.84 µM (inactive)
GI50 (A549): 4.35 µM (inactive)
GI50 (LOX IMVI): 2.77 µM (inactive)
GI50 (MDA-MB-231): 3.08 µM (inactive)
GI50 (OVCAR-8): 4.01 µM (inactive)
GI50 (MDA-MB-435): 5.73 µM (inactive)
GI50 (UO-31): 3.14 µM (inactive)
GI50 (HL-60): 2.28 µM (inactive)
GI50 (A498): 10.2 µM (inactive)
GI50 (TK-10): 4.99 µM (inactive)
GI50 (OVCAR-3): 2.51 µM (inactive)
GI50 (NCI-H226): 2.59 µM (inactive)
GI50 (CAKI-1): 4.09 µM (inactive)
GI50 (SNB-75): 6.24 µM (inactive)
GI50 (NCI-H460): 2.11 µM (inactive)
GI50 (SK-MEL-5): 3.66 µM (inactive)
GI50 (SNB-19): 5.51 µM (inactive)
GI50 (HCT-15): 1.98 µM
GI50 (HCC 2998): 49.9 µM (inactive)
GI50 (RPMI-8226): 2.56 µM (inactive)
GI50 (Malme-3M): 1.46 µM (inactive)
GI50 (SF-295): 3.55 µM (inactive)
GI50 (HT-29): 4.55 µM (inactive)
GI50 (NCI-H23): 3.6 µM (inactive)
GI50 (SW-620): 7.13 µM (inactive)
GI50 (COLO 205): 4.74 µM (inactive)
GI50 (SN12C): 1.24 µM (inactive)
GI50 (Hs-578T): 12.4 µM (inactive)
GI50 (OVCAR-4): 3.5 µM (inactive)
GI50 (HOP-62): 4.94 µM (inactive)
GI50 (UACC-257): 7.8 µM (inactive)
GI50 (MCF7): 4.04 µM (inactive)
GI50 (EKVX): 3.01 µM (inactive)
GI50 (OVCAR-5): 7.78 µM (inactive)
GI50 (UACC-62): 4.33 µM (inactive)

[N-]=[N+]=Nc1ccc2c(c1)Sc1ccccc1N2CCCCN1CCN(Cc2ccc(C(=O)c3ccccc3)cc2)CC1
GI50 (ACHN): 6.46 µM (inactive)
GI50 (MDA-N): 9.51 µM (inactive)
GI50 (IGROV-1): > 22.3 µM (inactive)
GI50 (T47D): 3.39 µM (inactive)
GI50 (M14): 2 µM (inactive)
GI50 (PC-3): 3.35 µM (inactive)
GI50 (SK-OV-3): > 100 µM (inactive)
GI50 (NCI/ADR-RES): 3.68 µM (inactive)
GI50 (SF-539): 3.35 µM (inactive)
GI50 (SK-MEL-2): 2.65 µM (inactive)
GI50 (NCI-H522): 1.85 µM (inactive)
GI50 (HOP-92): 2.29 µM (inactive)
GI50 (SF-268): 5.6 µM (inactive)
GI50 (SK-MEL-28): 1.96 µM (inactive)
GI50 (K562): 3.23 µM (inactive)
GI50 (MOLT-4): 3.6 µM (inactive)
GI50 (DU-145): > 100 µM (inactive)
GI50 (CCRF-CEM): 5.97 µM (inactive)
GI50 (KM12): 3.01 µM (inactive)
GI50 (SR): 3 µM (inactive)
GI50 (786-0): 5.24 µM (inactive)
GI50 (HCT-116): 3.43 µM (inactive)
GI50 (BT-549): > 20.7 µM (inactive)
GI50 (U-251): 5.74 µM (inactive)
GI50 (RXF 393): 1.72 µM (inactive)
GI50 (A549): > 92.5 µM (inactive)
GI50 (LOX IMVI): 1.76 µM (inactive)
GI50 (MDA-MB-231): 3.11 µM (inactive)
GI50 (OVCAR-8): 3.4 µM (inactive)
GI50 (MDA-MB-435): 4.92 µM (inactive)
GI50 (UO-31): 2.51 µM (inactive)
GI50 (HL-60): 2.47 µM (inactive)
GI50 (A498): 17.4 µM (inactive)
GI50 (TK-10): > 39.6 µM (inactive)
GI50 (OVCAR-3): 3.72 µM (inactive)
GI50 (NCI-H226): 20.4 µM (inactive)
GI50 (CAKI-1): 7.13 µM (inactive)
GI50 (SNB-75): 4.32 µM (inactive)
GI50 (NCI-H460): 2.85 µM (inactive)
GI50 (SK-MEL-5): 2.13 µM (inactive)
GI50 (SNB-19): > 100 µM (inactive)
GI50 (HCT-15): 3.47 µM
GI50 (HCC 2998): 2.13 µM (inactive)
GI50 (RPMI-8226): 3.86 µM (inactive)
GI50 (Malme-3M): 1.95 µM (inactive)
GI50 (SF-295): 23.4 µM (inactive)
GI50 (HT-29): 1.46 µM (inactive)
GI50 (NCI-H23): 6.49 µM (inactive)
GI50 (SW-620): 6.22 µM (inactive)
GI50 (COLO 205): 1.79 µM (inactive)
GI50 (SN12C): > 25.3 µM (inactive)
GI50 (Hs-578T): 16.3 µM (inactive)
GI50 (OVCAR-4): 4.6 µM (inactive)
GI50 (HOP-62): > 38.9 µM (inactive)
GI50 (UACC-257): 2.04 µM (inactive)
GI50 (MCF7): 2.64 µM (inactive)
GI50 (EKVX): 6.67 µM (inactive)
GI50 (OVCAR-5): 4.16 µM (inactive)
GI50 (UACC-62): 2.43 µM (inactive)
